In patent publication US8946439B2, “Amide compounds, compositions and uses thereof” (Evotec AG, priority 2008, dated 2015):
Like-named read-outs stand apart in the source and are kept apart here.

Legend:
[1] = biological target: T1, hP2X2/3H (Homo sapiens, UniProt P56373+Q9UBL9); test: Calcium uptake assay (P2X antagonist assay), P2X2/3 heteromer; format: cell-based; conditions: hP2X2/3H
T1 construct: expressed in transfected cells; host or cells: e.g. HEK293 or 1321N1
T1 sequence (Q9UBL9 1-471): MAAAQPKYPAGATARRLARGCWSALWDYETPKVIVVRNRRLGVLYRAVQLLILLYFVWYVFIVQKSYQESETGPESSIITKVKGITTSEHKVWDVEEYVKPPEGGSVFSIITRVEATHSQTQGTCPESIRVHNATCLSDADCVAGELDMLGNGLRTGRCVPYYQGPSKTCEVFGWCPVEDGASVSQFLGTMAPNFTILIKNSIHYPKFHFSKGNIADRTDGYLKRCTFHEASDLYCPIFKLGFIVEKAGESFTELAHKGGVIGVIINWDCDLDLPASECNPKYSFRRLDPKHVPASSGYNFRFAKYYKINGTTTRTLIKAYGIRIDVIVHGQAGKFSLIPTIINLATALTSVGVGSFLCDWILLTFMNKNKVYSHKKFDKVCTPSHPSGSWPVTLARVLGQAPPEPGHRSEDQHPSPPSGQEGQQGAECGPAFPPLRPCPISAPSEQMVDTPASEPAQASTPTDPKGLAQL
T1 sequence (P56373 1-397): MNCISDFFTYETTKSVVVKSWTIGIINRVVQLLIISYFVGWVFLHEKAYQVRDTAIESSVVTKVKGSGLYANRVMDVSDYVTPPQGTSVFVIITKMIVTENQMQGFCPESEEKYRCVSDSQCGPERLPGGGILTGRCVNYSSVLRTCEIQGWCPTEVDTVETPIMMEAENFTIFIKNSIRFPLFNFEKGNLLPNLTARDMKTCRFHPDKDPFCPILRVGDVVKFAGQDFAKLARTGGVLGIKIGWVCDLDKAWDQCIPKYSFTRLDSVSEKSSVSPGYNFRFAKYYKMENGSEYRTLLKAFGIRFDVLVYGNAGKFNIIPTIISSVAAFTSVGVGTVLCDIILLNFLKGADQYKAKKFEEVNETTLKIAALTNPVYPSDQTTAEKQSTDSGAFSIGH
Source text: (§1) The human P2X2/3 chimera clone is created as described by Neelands et al, and then cloned into an expression vector as above. Receptors are expressed in cells (e.g., HEK293 or 1321N1 (obtained from the ECACC)) via transient transfection using standard lipid mediated transfection, or by creation of stable transfectants for each receptor. For expression of the P2X2/3 heteromeric receptor, the P2X3 expression vector is stably transfected into a cell line already stably expressing P2X2. P2X2/3 heteromer function is isolated using pharmacological methods. Cell lines are maintained in DMEM+5% Glutamax, the appropriate level of selective antibiotic, and 10% heat inactivated FBS.
(§2) Functional activity of compounds at the P2X receptor is determined by measuring their ability to inhibit agonist-induced calcium influx. Compounds are tested for antagonist activity against the P2X2/3 chimera, the P2X3 homomer, or the P2X2/3 heteromer. At the start of each screening day, the agonist EC50 is determined. Compound % inhibition or IC50s are subsequently determined using a predetermined agonist concentration (EC50-90 depending on cell line) as a stimulus. The agonists used are αβMeATP, ATP, or other ATP analogs. Compounds may be tested at concentrations ranging from 1 pM to 10 μM.
(§3) To test for antagonist activity, cells expressing the appropriate receptor are seeded onto 96 or 384 well plates 18-24 hours prior to assay. […] Plates are incubated at 37° C. and then equilibrated at room temperature. Antagonism of agonist-induced calcium influx is measured using a fluorescent imaging plate reader (e.g. FLIPR^TETRA, Molecular Devices, Sunnyvale, Calif.). The assay comprises two stages: a pre-treatment phase followed by a treatment phase. Compounds may be tested as follows: For the pre-treatment phase, 50 μL of 3× concentration of test compound in HBSS is added to cells containing […], of dye loading media to achieve a final concentration of 1× test compound. For the treatment phase, at a set interval after pre-treatment (1-30 minutes), 50 μL of 1× test compound plus 4× agonist solution is added, resulting in a final concentration of 1× compound and 1× agonist. […] Responses are measured as (peak fluorescence after agonist addition) minus (baseline fluorescence prior to treatment). Percent inhibition is calculated as follows:
(§4) [formula] IC50 values are determined by analyzing dose response data in a 4 parameter logistic fit using GraphPad Prizm.

[2] = biological target: T2, hP2X3 (Homo sapiens, UniProt P56373); test: Calcium uptake assay (P2X antagonist assay), P2X3 homomer; format: cell-based; conditions: hP2X3
T2 construct: expressed in transfected cells; host or cells: e.g. HEK293 or 1321N1
T2 sequence (P56373 1-397): T1 sequence (P56373 1-397)
Source text: as §1, §2, §3, §4

[3] = Ca influx (calcium uptake assay), read-out: IC50 hP2X2/3H
[4] = Ca influx (calcium uptake assay), read-out: IC50 hP2X3
[5] = calcium uptake assay, read-out: IC50 hP2X2/3H (nM), Ca Influx
[6] = calcium uptake assay, read-out: IC50 hP2X3 (nM), Ca Influx

IC50 [1, 3]	IC50 [2, 4]	IC50 [1, 5]	IC50 [2, 6]	SMILES
100 to 500 nM	< 100 nM	–	–	Cc1ccc(-c2cc(OCC(O)CO)cc(C(=O)N[C@H](C)c3ccc(C)nc3)c2)c(C#N)c1 (stereo partly drawn) [Compound 315, 2′-Cyano-5-(2,3-dihydroxypropoxy)-4′-methyl-N—((R)-1-(6-methylpyridin-3-yl)ethyl)biphenyl-3-carboxamide]
–	–	100 to 500 nM	< 100 nM	Cc1ccc(-c2cc(C(=O)NCc3ccc(C)nc3)cc(C(=O)N(C)c3ccccn3)c2)cc1 [Compound 164]
–	–	< 100 nM	< 100 nM	Cc1ccc(-c2cc(C(=O)N[C@H](C)c3ccc(C(F)(F)F)nc3)cc(C(=O)N3CC[C@@H](O)C3)c2)nc1 [Compound 150]
–	–	< 100 nM	< 100 nM	Cc1ccc(-c2cc(C(=O)N[C@H](C)c3cnc(C)nc3)cc(C(=O)N3CCN4CCCC4C3)c2)cc1 (stereo partly drawn) [Compound 191, 4′-Methyl-N—((R)-1-(2-methylpyrimidin-5-yl)ethyl)-5-(octahydropyrrolo[1,2-a]pyrazine-2-carbonyl)biphenyl-3-carboxamide]
100 to 500 nM	< 100 nM	–	–	Cc1ccc(-c2cc(OCC3CNCCO3)cc(C(=O)N[C@H](C)c3ccc(C)nc3)c2)c(C#N)c1 (stereo partly drawn) [Compound 324, 2′-Cyano-4′-methyl-N—((R)-1-(6-methylpyridin-3-yl)ethyl)-5-(morpholin-2-ylmethoxy)biphenyl-3-carboxamide]
–	–	> 1000 nM	> 1000 nM	Cc1ccc(CNC(=O)c2cc(-c3ccc(C)c(Cl)c3)cc(S(C)(=O)=O)c2)cn1 [Compound 120]
100 to 500 nM	< 100 nM	–	–	Cc1ccc(-c2cc(C(=O)N[C@H](CCO)c3ccc(C(F)(F)F)nc3)cc(S(C)(=O)=O)c2)cc1 [Compound 223]
100 to 500 nM	< 100 nM	–	–	Cc1ccc(-c2cc(Oc3nccs3)cc(C(=O)NCc3cnc(C)nc3)c2)c(C#N)c1 [Compound 261]
–	–	> 1000 nM	501 to 1000 nM	Cc1ccc(-c2cc(C(=O)NCC(C)C)cc(C(=O)N[C@@H](C)CO)c2)cc1 [Compound 2, (S)—N3-(1-Hydroxypropan-2-yl)-N5-isobutyl-4′-methylbiphenyl-3,5-dicarboxamide]
< 100 nM	< 100 nM	–	–	Cc1ccc(-c2cc(OC3CCOC3)cc(C(=O)N[C@H](C)c3ccc(C)nc3)c2)cc1 (stereo partly drawn) [Compound 308, 4′-Methyl-N—((R)-1-(6-methylpyridin-3-yl)ethyl)-5-(tetrahydrofuran-3-yloxy)biphenyl-3-carboxamide]
100 to 500 nM	< 100 nM	–	–	Cc1ccc(-c2cc(OCC3CNCCO3)cc(C(=O)N[C@H](C)c3ccc(C)nc3)c2)cc1 (some centres unmarked) [Compound 325]
–	–	> 1000 nM	< 100 nM	Cc1ccc(-c2cc(C(=O)N[C@H](C)c3cnc(C)nc3)cc(S(=O)(=O)N3CCCC3)c2)c(C#N)c1 [Compound 147]
–	–	< 100 nM	< 100 nM	Cc1ccc(-c2cc(C(=O)NCc3ncc(C(F)(F)F)cc3Cl)cc(C(=O)N3CC(O)C3)c2)cc1 [Compound 129]
–	–	501 to 1000 nM	< 100 nM	Cc1ccc(-c2cc(C(=O)NCc3cnc(C)nc3)cc(C(=O)N3CC3C)c2)cc1 (centres unmarked) [Compound 31, 4′-Methyl-5-(2-methylaziridine-1-carbonyl)-N-((2-methylpyrimidin-5-yl)methyl)biphenyl-3-carboxamide]
–	–	< 100 nM	< 100 nM	COc1ncc([C@@H](C)NC(=O)c2cc(C(=O)N3CCC3)cc(-c3ccc(C)cc3)c2)cn1 [Compound 77]
< 100 nM	< 100 nM	–	–	Cc1ccc(-c2cc(OCC3COCCO3)cc(C(=O)N[C@H](C)c3ccc(C)nc3)c2)c(C#N)c1 (some centres unmarked) [Compound 317]

IC50 [1, 3]	IC50 [2, 4]	IC50 [1, 5]	IC50 [2, 6]	SMILES
–	–	< 100 nM	< 100 nM	Cc1ccc(-c2cc(C(=O)NCc3cnc(C)nc3)cc(C(=O)N3CCCC3)c2)cc1 [Compound 20, 4′-Methyl-N-((2-methylpyrimidin-5-yl)methyl)-5-(pyrrolidine-1-carbonyl)biphenyl-3-carboxamide]
–	–	< 100 nM	< 100 nM	Cc1ccc(-c2cc(C(=O)NCc3ccc(C(F)(F)F)nc3)cc(C(=O)N3CC[C@@H](O)C3)c2)nc1 [Compound 146]
< 100 nM	< 100 nM	–	–	Cc1ccc(-c2cc(Oc3nccs3)cc(C(=O)N[C@H](C)c3ccc(C)nc3)c2)c(C#N)c1 [Compound 255]
–	–	< 100 nM	< 100 nM	Cc1ccc(-c2cc(C(=O)N[C@H](C)c3ccc(C)nc3)cc(C(=O)N3CCN4CCCC4C3)c2)cc1 (some centres unmarked) [Compound 192]
< 100 nM	100 to 500 nM	–	–	Cc1ccc(-c2cc(Oc3ccccn3)cc(C(=O)N[C@H](C)c3cnc(C)nc3)c2)cc1 [Compound 243]
< 100 nM	< 100 nM	–	–	Cc1ccc(-c2cc(C(=O)NCc3ccc(C)nc3)cc(C(O)c3ccccn3)c2)cc1 (centres unmarked) [Compound 240, 5-(Hydroxy(pyridin-2-yl)methyl)-4′-methyl-N-((6-methylpyridin-3-yl)methyl)biphenyl-3-carboxamide]
< 100 nM	< 100 nM	–	–	Cc1ccc(-c2cc(C(=O)NCc3cnc(C)nc3)cc(S(=O)(=O)C(C)C)c2)cc1 [Compound 201]
< 100 nM	< 100 nM	–	–	Cc1ccc(-c2cc(C(=O)NCc3ccc(C)[n+]([O-])c3)cc(C(=O)N3CCCC3)c2)cc1 [Compound 224, 2-Methyl-5-((4′-methyl-5-(pyrrolidine-1-carbonyl)biphenyl-3-ylcarboxamido)methyl)pyridine 1-oxide]
100 to 500 nM	< 100 nM	–	–	Cc1ccc(-c2cc(C(=O)N[C@H](CO)c3ccc(C(F)(F)F)nc3)cc(S(C)(=O)=O)c2)cc1 [Compound 226]
< 100 nM	< 100 nM	–	–	Cc1ccc(-c2cc(C(=O)N[C@H](C)c3ccc(C)nc3)cc(C(C)O)c2)c(C#N)c1 (some centres unmarked) [Compound 311]
< 100 nM	< 100 nM	–	–	CCS(=O)(=O)c1cc(C(=O)NCc2ccc(C)nc2)cc(-c2ccc(C)cc2)c1 [Compound 211]
100 to 500 nM	< 100 nM	–	–	Cc1ccc(-c2cc(OC3CNCC3O)cc(C(=O)N[C@H](C)c3ccc(C)nc3)c2)c(C#N)c1 (stereo partly drawn) [Compound 338, 2′-Cyano-5-(4-hydroxypyrrolidin-3-yloxy)-4′-methyl-N—((R)-1-(6-methylpyridin-3-yl)ethyl)biphenyl-3-carboxamide]
< 100 nM	< 100 nM	–	–	Cc1ccc(-c2cc(CO)cc(C(=O)N[C@H](C)c3ccc(C)nc3)c2)c(C#N)c1 [Compound 290, (R)-2′-Cyano-5-(hydroxymethyl)-4′-methyl-N-(1-(6-methylpyridin-3-yl)ethyl)biphenyl-3-carboxamide]
–	–	< 100 nM	< 100 nM	Cc1ccc(-c2cc(C(=O)NCc3ccc(C)nc3)cc(C(=O)N3CC(O)C3)c2)c(C#N)c1 [Compound 63, 2′-Cyano-5-(3-hydroxyazetidine-1-carbonyl)-4′-methyl-N-((6-methylpyridin-3-yl)methyl)biphenyl-3-carboxamide]
< 100 nM	< 100 nM	–	–	Cc1ccc(-c2cc(OC3CCOC3)cc(C(=O)N[C@H](C)c3ccc(C)nc3)c2)c(C#N)c1 (some centres unmarked) [Compound 314]
